For series [1], the system named is Candida albicans. In words: Antifungal activity against Candida albicans FP633. Format: functional.
Series [2] relates to Aspergillus fumigatus. The experiment in a line: Antifungal activity against Aspergillus fumigatus FP1305. Format: functional, organism-based.
Series [3] can be described thus: Effect on hemolysis in red blood cells. Type of series: ADME, cell-based, Erythrocyte.
Series [4] deals with Candida albicans. The experiment in a line: Antifungal activity against Candida albicans FP633 in in vivo model. Type of series: functional.
Series [5] has as its system Aspergillus fumigatus. The experiment in a line: Antifungal activity against Aspergillus fumigatus 8004 in in vivo model. Format: functional.

Molecules are shown by their SMILES. Values after ≈ are worked out from the molar mass of the structure shown. Starred links: 1 amine or outer side, 2 acyl side, 3 side chain; linkers in the order of their positions; H or OH if unused. Positions of bridges follow the written chain, without caps; N, C: chain ends. Non-standard residues stand in square brackets, D forms with d. Residues, ends and D or L forms follow the SMILES beside them. *: point of attachment. hTyr(3S-OH,4S-OH,3'-OSO3H) = N[C@H](C(=O)O)[C@H](O)[C@@H](O)c1ccc(O)c(OS(=O)(=O)O)c1; Orn(4R-OH,5R-OH) = O=C([C@H](C[C@@H](O)[C@@H](O)N[*:3])N[*:1])[*:2]; Orn(4R-OH,5S-OH) = O=C([C@H](C[C@@H](O)[C@H](O)N[*:3])N[*:1])[*:2]; Pro(3S-OH,4S-Me) = C[C@H]1CN[C@H](C(=O)O)[C@H]1O; X1 = CCCCOc1ccc(-c2ccc(-c3ccc(C(=O)*)cc3)cc2)cc1; Benzoyl(4-octyloxy) = CCCCCCCCOc1ccc(C(=O)*)cc1; Gln(3R-OH) = NC(=O)C[C@@H](O)[C@H](N)C(=O)O; Hyp = O=C(O)[C@@H]1C[C@@H](O)CN1

In turn, `CCCCCCCOc1ccc2cc(C(=O)N[C@@H]3C[C@@H](O)[C@@H](O)NC(=O)[C@@H]4[C@@H](O)[C@@H](C)CN4C(=O)[C@H]([C@H](O)CC(N)=O)NC(=O)[C@H]([C@H](O)[C@@H](O)c4ccc(O)c(OS(=O)(=O)[O-])c4)NC(=O)[C@@H]4C[C@@H](O)CN4C(=O)C([C@@H](C)O)NC3=O)ccc2c1.[Na+]` (stereo not given in full) had an MIC against Candida albicans [1] of 0.39 µg/mL. For the same molecule, the IC50 with Aspergillus fumigatus [2] amounted to 0.004 µg/mL. In series [3], this molecule yielded an LC30 of over 10000 µg/mL.

The molecule `CCCCCOc1ccc(-c2ccc(/C=C/C(=O)N[C@@H]3C[C@@H](O)[C@@H](O)NC(=O)[C@@H]4[C@@H](O)[C@@H](C)CN4C(=O)[C@H]([C@H](O)CC(N)=O)NC(=O)[C@H]([C@H](O)[C@@H](O)c4ccc(O)c(OS(=O)(=O)[O-])c4)NC(=O)[C@@H]4C[C@@H](O)CN4C(=O)C([C@@H](C)O)NC3=O)cc2)cc1.[Na+]` (stereo not given in full) came in with a minimum inhibitory concentration (MIC) in the series on Candida albicans [1] of 0.05 µg/mL. In the series with Aspergillus fumigatus [2], this molecule displayed an IC50 of 0.002 µg/mL. In series [3], this molecule registered an LC30 of 3950 µg/mL.

For `CCCCCCCCOc1ccc(/C=C/C(=O)N[C@@H]2C[C@@H](O)[C@@H](O)NC(=O)[C@@H]3[C@@H](O)[C@@H](C)CN3C(=O)[C@H]([C@H](O)CC(N)=O)NC(=O)[C@H]([C@H](O)[C@@H](O)c3ccc(O)c(OS(=O)(=O)[O-])c3)NC(=O)[C@@H]3C[C@@H](O)CN3C(=O)C([C@@H](C)O)NC2=O)cc1.[Na+]` (stereo not given in full), the lowest concentration to inhibit growth against Candida albicans [1] (MIC) was 0.78 µg/mL. For the same molecule, the LC30 in series [3] is over 10000 µg/mL.

In the series with Candida albicans [1], `CCCCCCCCCCCCOc1ccc2cc(C(=O)N[C@@H]3C[C@@H](O)[C@@H](O)NC(=O)[C@@H]4[C@@H](O)[C@@H](C)CN4C(=O)[C@H]([C@H](O)CC(N)=O)NC(=O)[C@H]([C@H](O)[C@@H](O)c4ccc(O)c(OS(=O)(=O)[O-])c4)NC(=O)[C@@H]4C[C@@H](O)CN4C(=O)C([C@@H](C)O)NC3=O)ccc2c1.[Na+]` (stereo not given in full) displayed an MIC of 0.78 µg/mL. In series [3], this molecule returned an LC30 of 410 µg/mL.

The molecule `CCCCOc1ccc(-c2ccc(-c3ccc(C(=O)N[C@H]4C[C@@H](O)[C@@H](O)NC(=O)[C@@H]5[C@@H](O)[C@@H](C)CN5C(=O)[C@H]([C@H](O)CC(N)=O)NC(=O)[C@H]([C@H](O)[C@@H](O)c5ccc(O)c(OS(=O)(=O)O)c5)NC(=O)[C@@H]5C[C@@H](O)CN5C(=O)[C@H]([C@@H](C)O)NC4=O)cc3)cc2)cc1` (X1-[Orn(4R-OH,5R-OH)]T[Hyp][hTyr(3S-OH,4S-OH,3'-OSO3H)][Gln(3R-OH)][Pro(3S-OH,4S-Me)]; lactam 1-C) [listing 1 of 2 here] showed an IC50 with Aspergillus fumigatus [2] of 0.002 µg/mL (≈ 1.58 nM). The same molecule showed an LC30 in series [3] of 370 µg/mL (≈ 292000 nM).

As to `CCCCCCCCCCOc1ccc2cc(C(=O)N[C@@H]3C[C@@H](O)[C@@H](O)NC(=O)[C@@H]4[C@@H](O)[C@@H](C)CN4C(=O)[C@H]([C@H](O)CC(N)=O)NC(=O)[C@H]([C@H](O)[C@@H](O)c4ccc(O)c(OS(=O)(=O)[O-])c4)NC(=O)[C@@H]4C[C@@H](O)CN4C(=O)C([C@@H](C)O)NC3=O)ccc2c1.[Na+]` (stereo not given in full), 0.2 µg/mL was the least that counted as inhibitory in the series with Candida albicans [1] (MIC). Also, it took 0.015 µg/mL to reach half-maximal inhibition in the series with Aspergillus fumigatus [2] (IC50). This molecule came in with an LC30 in series [3] of 750 µg/mL.

In the series on Candida albicans [1], `CCCCCCCCOc1ccc(C(=O)N[C@H]2C[C@@H](O)[C@H](O)NC(=O)[C@@H]3[C@@H](O)[C@@H](C)CN3C(=O)[C@H]([C@H](O)CC(N)=O)NC(=O)[C@H]([C@H](O)[C@@H](O)c3ccc(O)c(OS(=O)(=O)[O-])c3)NC(=O)[C@@H]3C[C@@H](O)CN3C(=O)[C@H]([C@@H](C)O)NC2=O)cc1.[Na+]` [FR-131535] ({Benzoyl(4-octyloxy)}-[Orn(4R-OH,5S-OH)]T[Hyp][hTyr(3S-OH,4S-OH,3'-OSO3H)][Gln(3R-OH)][Pro(3S-OH,4S-Me)]; lactam 1-C) registered an MIC of 0.78 µg/mL. The molecule also yielded an IC50 in the series on Aspergillus fumigatus [2] of 0.015 µg/mL. Moreover, the LC30 in series [3] is over 10000 µg/mL. Further, the ED50 in the series with Candida albicans [4] is 3.71 mg/kg; in the series with Aspergillus fumigatus [5], 4.31 mg/kg.

In the series on Candida albicans [1], `CCCCCCCCOc1ccc2cc(C(=O)N[C@@H]3C[C@@H](O)[C@@H](O)NC(=O)[C@@H]4[C@@H](O)[C@@H](C)CN4C(=O)[C@H]([C@H](O)CC(N)=O)NC(=O)[C@H]([C@H](O)[C@@H](O)c4ccc(O)c(OS(=O)(=O)[O-])c4)NC(=O)[C@@H]4C[C@@H](O)CN4C(=O)C([C@@H](C)O)NC3=O)ccc2c1.[Na+]` (stereo not given in full) showed an MIC of 0.1 µg/mL. Further, the IC50 in the series on Aspergillus fumigatus [2] stood at 0.003 µg/mL. In series [3], this molecule returned an LC30 of over 10000 µg/mL. In addition, the ED50 came out at 0.46 mg/kg in the series with Candida albicans [4] and 0.79 mg/kg in the series on Aspergillus fumigatus [5].

In the series on Candida albicans [1], `CCCCOc1ccc(-c2ccc(-c3ccc(C(=O)N[C@H]4C[C@@H](O)[C@@H](O)NC(=O)[C@@H]5[C@@H](O)[C@@H](C)CN5C(=O)[C@H]([C@H](O)CC(N)=O)NC(=O)[C@H]([C@H](O)[C@@H](O)c5ccc(O)c(OS(=O)(=O)O)c5)NC(=O)[C@@H]5C[C@@H](O)CN5C(=O)[C@H]([C@@H](C)O)NC4=O)cc3)cc2)cc1` (X1-[Orn(4R-OH,5R-OH)]T[Hyp][hTyr(3S-OH,4S-OH,3'-OSO3H)][Gln(3R-OH)][Pro(3S-OH,4S-Me)]; lactam 1-C) [listing 2 of 2 here] gave an MIC of 0.0125 µg/mL (≈ 9.88 nM).

As for `CCCCCCCOc1ccc(-c2ccc(C(=O)N[C@@H]3C[C@@H](O)[C@@H](O)NC(=O)[C@@H]4[C@@H](O)[C@@H](C)CN4C(=O)[C@H]([C@H](O)CC(N)=O)NC(=O)[C@H]([C@H](O)[C@@H](O)c4ccc(O)c(OS(=O)(=O)[O-])c4)NC(=O)[C@@H]4C[C@@H](O)CN4C(=O)C([C@@H](C)O)NC3=O)cc2)cc1.[Na+]` (stereo not given in full), the MIC with Candida albicans [1] was 0.1 µg/mL. This molecule also gave a 50% inhibitory concentration (IC50) with Aspergillus fumigatus [2] of 0.002 µg/mL. In series [3], the LC30 is 910 µg/mL.

On to `CCCCCCCCCCOc1ccc(C(=O)N[C@@H]2C[C@@H](O)[C@@H](O)NC(=O)[C@@H]3[C@@H](O)[C@@H](C)CN3C(=O)[C@H]([C@H](O)CC(N)=O)NC(=O)[C@H]([C@H](O)[C@@H](O)c3ccc(O)c(OS(=O)(=O)[O-])c3)NC(=O)[C@@H]3C[C@@H](O)CN3C(=O)C([C@@H](C)O)NC2=O)cc1.[Na+]` (stereo not given in full), for which the lowest concentration to inhibit growth in the series with Candida albicans [1] (MIC) was 0.2 µg/mL. The IC50 in the series on Aspergillus fumigatus [2] turned out to be 0.005 µg/mL. In series [3], this molecule registered an LC30 of 10000 µg/mL.

`CCCCCCOc1ccc2cc(C(=O)N[C@@H]3C[C@@H](O)[C@@H](O)NC(=O)[C@@H]4[C@@H](O)[C@@H](C)CN4C(=O)[C@H]([C@H](O)CC(N)=O)NC(=O)[C@H]([C@H](O)[C@@H](O)c4ccc(O)c(OS(=O)(=O)[O-])c4)NC(=O)[C@@H]4C[C@@H](O)CN4C(=O)C([C@@H](C)O)NC3=O)ccc2c1.[Na+]` (stereo not given in full): the lowest concentration to inhibit growth with Candida albicans [1] (MIC) was 0.78 µg/mL. For the same molecule, in the series with Aspergillus fumigatus [2], 0.025 µg/mL corresponded to half-maximal inhibition (IC50). In series [3], this molecule returned an LC30 of over 10000 µg/mL.

One may read the MIC as the least concentration at which growth counts as inhibited. Lower therefore signals inhibition by little substance. A word on the IC50: it is the point on the concentration scale where inhibition reaches its midpoint. Read a low IC50 as greater potency. What is called ED50 is the dose at which the effect has come halfway, by size or by number of responders.
